Measurements taken from article PMC9927415, “Tyrosine Kinase Inhibitors Display Potent Activity against Cryptosporidium parvum” (Microbiology Spectrum, 2022).

Columns and labels:
Assay in all cases: KINOMEscan competitive binding
[1] = biological target: T1, TLK1 (Homo sapiens, UniProt Q9UKI8); settings: n=1, read-out: Percent inhibition, TLK1
T1 construct: purchased DiscoverX (KINOMEscan)
T1 sequence (Q9UKI8 1-766): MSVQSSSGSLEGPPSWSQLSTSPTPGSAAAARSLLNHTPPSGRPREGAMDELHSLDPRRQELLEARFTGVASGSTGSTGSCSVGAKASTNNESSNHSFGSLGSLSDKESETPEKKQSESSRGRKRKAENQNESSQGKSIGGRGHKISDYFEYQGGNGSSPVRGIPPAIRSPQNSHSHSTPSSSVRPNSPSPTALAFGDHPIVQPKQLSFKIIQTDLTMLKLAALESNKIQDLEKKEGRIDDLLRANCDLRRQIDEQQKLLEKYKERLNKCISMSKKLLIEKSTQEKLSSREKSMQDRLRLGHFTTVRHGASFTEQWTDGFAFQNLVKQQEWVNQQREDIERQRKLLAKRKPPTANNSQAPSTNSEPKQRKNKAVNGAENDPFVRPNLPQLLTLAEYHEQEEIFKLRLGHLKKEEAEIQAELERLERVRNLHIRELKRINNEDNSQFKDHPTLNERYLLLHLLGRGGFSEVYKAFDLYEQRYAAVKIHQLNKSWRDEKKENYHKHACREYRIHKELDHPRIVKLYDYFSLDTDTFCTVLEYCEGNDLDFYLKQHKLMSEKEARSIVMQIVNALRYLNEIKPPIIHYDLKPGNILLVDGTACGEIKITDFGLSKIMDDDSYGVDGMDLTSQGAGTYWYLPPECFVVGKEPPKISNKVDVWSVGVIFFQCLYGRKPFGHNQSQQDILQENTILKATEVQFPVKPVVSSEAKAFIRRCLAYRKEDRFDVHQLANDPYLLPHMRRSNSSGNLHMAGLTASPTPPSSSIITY

[2] = biological target: T2, RPS6KA6(Kin.Dom.1) (Homo sapiens, UniProt Q9UK32); settings: n=1, read-out: Percent inhibition, RPS6KA6(Kin.Dom.1)
T2 construct: RPS6KA6(Kin.Dom.1); purchased DiscoverX (KINOMEscan)
T2 sequence (Q9UK32 1-400 limits assumed): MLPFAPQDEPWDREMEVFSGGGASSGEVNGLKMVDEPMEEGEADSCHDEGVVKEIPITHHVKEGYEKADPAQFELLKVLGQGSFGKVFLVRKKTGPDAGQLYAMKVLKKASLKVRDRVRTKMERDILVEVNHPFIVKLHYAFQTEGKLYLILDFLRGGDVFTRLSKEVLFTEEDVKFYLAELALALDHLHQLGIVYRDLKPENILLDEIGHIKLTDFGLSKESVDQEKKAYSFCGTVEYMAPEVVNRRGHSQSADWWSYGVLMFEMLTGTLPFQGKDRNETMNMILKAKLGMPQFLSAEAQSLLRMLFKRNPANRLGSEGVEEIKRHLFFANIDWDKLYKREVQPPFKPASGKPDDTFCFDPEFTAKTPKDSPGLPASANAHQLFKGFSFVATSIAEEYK

[3] = biological target: T3, PTK2B (Homo sapiens, UniProt Q14289); settings: n=1, read-out: Percent inhibition, PTK2B
T3 construct: purchased DiscoverX (KINOMEscan)
T3 sequence (Q14289 whole entry): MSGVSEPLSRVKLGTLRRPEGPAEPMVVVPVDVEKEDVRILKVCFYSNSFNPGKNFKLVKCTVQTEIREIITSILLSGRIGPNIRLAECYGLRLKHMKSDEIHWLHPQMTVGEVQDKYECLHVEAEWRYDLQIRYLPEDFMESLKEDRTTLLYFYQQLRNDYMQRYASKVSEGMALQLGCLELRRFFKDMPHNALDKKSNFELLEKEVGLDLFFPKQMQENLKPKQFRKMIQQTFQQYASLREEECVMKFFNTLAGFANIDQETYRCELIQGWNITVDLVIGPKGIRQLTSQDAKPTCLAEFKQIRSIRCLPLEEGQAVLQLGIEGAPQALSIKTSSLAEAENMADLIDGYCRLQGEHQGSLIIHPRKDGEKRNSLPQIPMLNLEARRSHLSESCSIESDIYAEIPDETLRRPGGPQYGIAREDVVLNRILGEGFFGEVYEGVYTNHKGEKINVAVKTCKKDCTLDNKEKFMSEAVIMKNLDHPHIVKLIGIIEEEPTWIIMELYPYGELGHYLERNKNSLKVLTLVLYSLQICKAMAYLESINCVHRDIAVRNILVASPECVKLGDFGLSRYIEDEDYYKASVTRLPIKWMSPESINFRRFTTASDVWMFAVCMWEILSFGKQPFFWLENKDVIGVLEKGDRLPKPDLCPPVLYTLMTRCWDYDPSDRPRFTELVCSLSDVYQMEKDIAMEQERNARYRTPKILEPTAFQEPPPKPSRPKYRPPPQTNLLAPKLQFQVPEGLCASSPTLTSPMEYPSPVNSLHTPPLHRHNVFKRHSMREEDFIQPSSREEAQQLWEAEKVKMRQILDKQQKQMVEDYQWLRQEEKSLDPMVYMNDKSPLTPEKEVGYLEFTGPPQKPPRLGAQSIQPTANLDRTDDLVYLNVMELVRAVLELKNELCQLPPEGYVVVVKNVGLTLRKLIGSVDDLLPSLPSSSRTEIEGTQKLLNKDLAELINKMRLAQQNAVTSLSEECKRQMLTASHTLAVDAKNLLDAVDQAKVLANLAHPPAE

[4] = biological target: T4, PAK3 (Homo sapiens, UniProt O75914); settings: n=1, read-out: Percent inhibition, PAK3
T4 construct: purchased DiscoverX (KINOMEscan)

[5] = biological target: T5, PRKD2 (Homo sapiens, UniProt Q9BZL6); settings: n=1, read-out: Percent inhibition, PRKD2
T5 construct: purchased DiscoverX (KINOMEscan)
T5 sequence (Q9BZL6 1-878): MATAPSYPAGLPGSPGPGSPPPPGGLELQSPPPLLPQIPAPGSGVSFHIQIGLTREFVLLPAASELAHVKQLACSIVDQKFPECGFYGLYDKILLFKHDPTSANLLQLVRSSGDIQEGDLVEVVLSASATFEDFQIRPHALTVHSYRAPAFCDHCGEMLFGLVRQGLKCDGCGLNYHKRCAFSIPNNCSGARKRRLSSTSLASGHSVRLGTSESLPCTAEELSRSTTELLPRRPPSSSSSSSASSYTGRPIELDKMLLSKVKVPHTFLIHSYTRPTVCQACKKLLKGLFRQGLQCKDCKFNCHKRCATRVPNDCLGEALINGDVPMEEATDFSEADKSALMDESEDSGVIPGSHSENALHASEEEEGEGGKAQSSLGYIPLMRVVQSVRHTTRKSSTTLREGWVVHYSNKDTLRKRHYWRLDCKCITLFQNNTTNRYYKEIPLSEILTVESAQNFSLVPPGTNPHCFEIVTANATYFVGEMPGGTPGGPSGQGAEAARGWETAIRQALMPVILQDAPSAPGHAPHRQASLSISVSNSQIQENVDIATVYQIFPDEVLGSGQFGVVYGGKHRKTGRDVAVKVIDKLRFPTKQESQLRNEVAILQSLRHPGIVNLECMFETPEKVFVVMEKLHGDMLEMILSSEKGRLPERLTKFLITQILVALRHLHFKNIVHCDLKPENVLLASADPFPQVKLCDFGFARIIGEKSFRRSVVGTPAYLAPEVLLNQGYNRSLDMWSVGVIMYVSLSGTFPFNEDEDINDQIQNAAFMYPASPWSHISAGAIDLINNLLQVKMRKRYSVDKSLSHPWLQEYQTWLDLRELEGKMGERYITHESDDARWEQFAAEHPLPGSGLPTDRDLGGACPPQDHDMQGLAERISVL

[6] = biological target: T6, TESK1 (Homo sapiens, UniProt Q15569); settings: n=1, read-out: Percent inhibition, TESK1
T6 construct: purchased DiscoverX (KINOMEscan)
T6 sequence (Q15569 whole entry): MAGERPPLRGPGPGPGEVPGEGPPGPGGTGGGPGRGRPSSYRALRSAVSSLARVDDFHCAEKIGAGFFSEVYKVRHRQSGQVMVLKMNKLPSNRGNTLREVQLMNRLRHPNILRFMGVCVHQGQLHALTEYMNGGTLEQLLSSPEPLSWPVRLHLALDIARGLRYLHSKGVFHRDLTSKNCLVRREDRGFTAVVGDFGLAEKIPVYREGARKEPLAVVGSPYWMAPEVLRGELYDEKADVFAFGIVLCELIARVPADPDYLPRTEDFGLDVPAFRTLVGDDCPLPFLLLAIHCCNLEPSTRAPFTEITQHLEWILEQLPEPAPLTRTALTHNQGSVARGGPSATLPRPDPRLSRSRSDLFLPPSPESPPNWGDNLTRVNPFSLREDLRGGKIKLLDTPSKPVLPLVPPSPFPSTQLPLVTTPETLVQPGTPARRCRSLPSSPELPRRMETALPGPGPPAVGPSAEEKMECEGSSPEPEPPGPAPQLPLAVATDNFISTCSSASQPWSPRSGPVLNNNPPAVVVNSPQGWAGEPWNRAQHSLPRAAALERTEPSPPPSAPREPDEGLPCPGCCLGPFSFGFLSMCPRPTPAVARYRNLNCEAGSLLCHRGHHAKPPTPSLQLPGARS

[7] = biological target: T7, PLK3 (Homo sapiens, UniProt Q9H4B4); settings: n=1, read-out: Percent inhibition, PLK3
T7 construct: purchased DiscoverX (KINOMEscan)
T7 sequence (Q9H4B4 whole entry): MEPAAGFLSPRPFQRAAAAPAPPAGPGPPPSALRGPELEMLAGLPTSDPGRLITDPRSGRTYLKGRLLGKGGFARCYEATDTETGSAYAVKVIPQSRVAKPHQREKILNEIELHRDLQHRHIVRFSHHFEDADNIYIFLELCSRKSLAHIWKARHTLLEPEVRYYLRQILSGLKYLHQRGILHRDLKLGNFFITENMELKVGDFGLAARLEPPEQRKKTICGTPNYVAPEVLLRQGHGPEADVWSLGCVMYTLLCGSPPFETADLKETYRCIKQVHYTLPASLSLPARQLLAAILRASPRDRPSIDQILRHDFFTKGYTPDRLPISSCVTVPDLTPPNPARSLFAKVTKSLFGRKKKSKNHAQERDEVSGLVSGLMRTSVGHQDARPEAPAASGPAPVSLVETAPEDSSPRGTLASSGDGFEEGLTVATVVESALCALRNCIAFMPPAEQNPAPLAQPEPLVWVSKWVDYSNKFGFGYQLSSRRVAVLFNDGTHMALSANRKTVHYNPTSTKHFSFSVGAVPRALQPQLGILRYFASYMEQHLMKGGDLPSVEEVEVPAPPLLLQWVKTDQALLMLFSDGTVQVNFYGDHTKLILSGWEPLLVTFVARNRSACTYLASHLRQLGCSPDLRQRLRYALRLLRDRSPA

[8] = biological target: T8, PHKG1 (Homo sapiens, UniProt Q16816); settings: n=1, read-out: Percent inhibition, PHKG1
T8 construct: purchased DiscoverX (KINOMEscan)
T8 sequence (Q16816 whole entry): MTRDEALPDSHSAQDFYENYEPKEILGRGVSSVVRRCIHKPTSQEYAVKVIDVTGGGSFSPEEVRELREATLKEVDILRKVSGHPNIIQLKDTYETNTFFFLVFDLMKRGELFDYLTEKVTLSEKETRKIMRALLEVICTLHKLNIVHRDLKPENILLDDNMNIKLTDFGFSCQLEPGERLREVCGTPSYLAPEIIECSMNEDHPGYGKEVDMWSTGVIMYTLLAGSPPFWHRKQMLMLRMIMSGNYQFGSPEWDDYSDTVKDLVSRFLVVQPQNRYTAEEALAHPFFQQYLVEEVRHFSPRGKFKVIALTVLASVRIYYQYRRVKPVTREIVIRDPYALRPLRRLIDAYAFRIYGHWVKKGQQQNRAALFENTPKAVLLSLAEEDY

[9] = biological target: T9, YES (Homo sapiens, UniProt P07947); settings: n=1, read-out: Percent inhibition, YES
T9 construct: purchased DiscoverX (KINOMEscan)
T9 sequence (P07947 whole entry): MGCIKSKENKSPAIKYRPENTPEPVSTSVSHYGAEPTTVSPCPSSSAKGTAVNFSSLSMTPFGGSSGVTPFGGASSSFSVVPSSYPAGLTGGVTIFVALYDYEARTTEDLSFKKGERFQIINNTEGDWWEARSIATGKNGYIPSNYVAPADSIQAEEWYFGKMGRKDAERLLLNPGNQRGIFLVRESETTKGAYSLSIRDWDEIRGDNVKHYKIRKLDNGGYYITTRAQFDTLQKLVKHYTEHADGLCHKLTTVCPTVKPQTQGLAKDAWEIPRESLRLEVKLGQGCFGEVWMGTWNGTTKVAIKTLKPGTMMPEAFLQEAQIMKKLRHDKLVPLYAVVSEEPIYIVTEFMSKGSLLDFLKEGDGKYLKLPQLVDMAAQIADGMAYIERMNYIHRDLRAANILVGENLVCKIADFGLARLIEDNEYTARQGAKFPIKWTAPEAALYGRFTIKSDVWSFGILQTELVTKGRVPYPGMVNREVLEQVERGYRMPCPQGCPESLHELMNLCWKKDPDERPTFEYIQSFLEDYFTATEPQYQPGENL

[10] = biological target: T10, YANK3 (Homo sapiens, UniProt Q86UX6); settings: n=1, read-out: Percent inhibition, YANK3
T10 construct: purchased DiscoverX (KINOMEscan)
T10 sequence (Q86UX6 whole entry): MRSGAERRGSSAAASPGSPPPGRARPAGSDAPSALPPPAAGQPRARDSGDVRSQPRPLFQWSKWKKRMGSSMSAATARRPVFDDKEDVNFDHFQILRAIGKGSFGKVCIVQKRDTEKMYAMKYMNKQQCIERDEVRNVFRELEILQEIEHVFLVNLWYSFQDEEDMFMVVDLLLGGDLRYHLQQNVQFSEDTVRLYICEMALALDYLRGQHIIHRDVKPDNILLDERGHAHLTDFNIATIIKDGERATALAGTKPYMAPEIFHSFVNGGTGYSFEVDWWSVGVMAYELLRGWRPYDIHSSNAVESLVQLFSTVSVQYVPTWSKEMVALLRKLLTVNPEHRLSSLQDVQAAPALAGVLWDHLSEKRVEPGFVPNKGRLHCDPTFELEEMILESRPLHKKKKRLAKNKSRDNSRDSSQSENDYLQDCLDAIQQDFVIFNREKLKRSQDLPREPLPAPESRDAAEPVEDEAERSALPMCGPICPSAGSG

[11] = biological target: T11, SRC (Homo sapiens, UniProt P12931); settings: n=1, read-out: Percent inhibition, SRC
T11 construct: purchased DiscoverX (KINOMEscan)
T11 sequence (P12931 whole entry): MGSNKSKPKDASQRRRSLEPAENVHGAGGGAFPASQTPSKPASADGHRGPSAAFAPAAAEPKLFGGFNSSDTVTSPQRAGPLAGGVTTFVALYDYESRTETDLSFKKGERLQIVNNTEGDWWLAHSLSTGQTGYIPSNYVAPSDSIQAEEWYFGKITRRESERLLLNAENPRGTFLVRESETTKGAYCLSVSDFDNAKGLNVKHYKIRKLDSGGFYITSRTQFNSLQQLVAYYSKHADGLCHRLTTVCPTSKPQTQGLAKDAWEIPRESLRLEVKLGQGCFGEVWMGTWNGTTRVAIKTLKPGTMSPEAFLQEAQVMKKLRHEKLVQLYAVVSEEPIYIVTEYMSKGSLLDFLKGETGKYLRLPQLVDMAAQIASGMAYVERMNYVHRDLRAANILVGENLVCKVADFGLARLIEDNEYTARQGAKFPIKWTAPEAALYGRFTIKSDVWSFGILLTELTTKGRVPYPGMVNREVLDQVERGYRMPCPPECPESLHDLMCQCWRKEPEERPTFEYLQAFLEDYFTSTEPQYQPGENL

Structure (SMILES) | inhibition at 10 µM [1] [%] | inhibition at 10 µM [2] [%] | inhibition at 10 µM [3] [%] | inhibition at 10 µM [4] [%] | inhibition at 10 µM [5] [%] | inhibition at 10 µM [6] [%] | inhibition at 10 µM [7] [%] | inhibition at 10 µM [8] [%] | inhibition at 10 µM [9] [%] | inhibition at 10 µM [10] [%] | inhibition at 10 µM [11] [%]
Cc1ccc(O)cc1Nc1ccnc(Nc2cccc(C(N)=O)c2)n1 [Compound 3] | 0 | 0 | 83.8 | 0 | 87.1 | 0 | 79 | 0 | 100 | 0 | 100
Cc1ccc(O)cc1N(C)c1ccnc(Nc2cccc(S(N)(=O)=O)c2)n1 [Compound 4] | 0 | 0 | 99 | 0 | 96.6 | 79.9 | 0 | 0 | 100 | 78.6 | 100
CN1CCN(c2ccc(Nc3nccc(-c4cnn5ncccc45)n3)cc2C#N)CC1 [Compound 1] | 99.2 | 0 | 83.9 | 85.3 | 0 | 0 | 0 | 88.3 | 92.8 | 0 | 99.2
Clc1ccc(Nc2ncc(-c3ccccc3)s2)cc1 [Compound 10] | 0 | 0 | 0 | 0 | 0 | 0 | 0 | 0 | 0 | 0 | 0
Nc1ncc2c(-c3ccncc3)c[nH]c2n1 [Compound 11] | 0 | 0 | 0 | 0 | 0 | 0 | 0 | 0 | 66.2 | 0 | 93.3
Fc1cccc(COc2ccc(Nc3ncnc4c3CN(CCN3CCOCC3)CC4)cc2Cl)c1 [Compound 6] | 0 | 0 | 0 | 0 | 0 | 0 | 0 | 0 | 0 | 0 | 0
COc1ccc(Nc2nccc(-c3cnn4ncccc34)n2)cc1 [Compound 2] | 0 | 0 | 89.6 | 0 | 75.3 | 0 | 0 | 0 | 0 | 0 | 85
C[C@@H](Oc1cc(-c2cnc3ccccn23)sc1C(N)=O)c1ccccc1Cl [Compound 8] | 0 | 0 | 0 | 0 | 0 | 0 | 95.6 | 0 | 0 | 0 | 0
COc1cc(Nc2nccc(-c3sc(N)nc3-c3cccc(NC(=O)c4c(F)cccc4F)c3)n2)cc(OC)c1OC [Compound 7] | 0 | 83.2 | 99.9 | 94.9 | 100 | 100 | 99.8 | 0 | 100 | 94.8 | 100
c1ccc(COc2cccc(-c3ccnc4[nH]ccc34)c2)cc1 [Compound 9] | 0 | 0 | 0 | 0 | 0 | 0 | 0 | 0 | 0 | 0 | 0
